From patent US5451564A, “Antimicrobial composition comprising N-hydroxy heterocyclic thiones” (priority 1991, dated 1995)
Like-named read-outs stand apart in the source and are kept apart here.

Legend:
[1] = system: mixed suspension of Pseudomonas aeruginosa, Proteus rettgeri, Serratia marcescans, Aeromonas hydrophila, Alcaligenes species, Pseudomonas cepacia and …; assay: repeated bacterial challenge test in acrylic (emulsion) paint; format: cell-based, mixed bacteria; parameters: key: 5: Confluent growth; 4: Heavy growth; 3: Moderate growth; 2: Slight growth; 1: Trace growth; 0: No growth
Procedure: (§1) An inoculum was prepared containing Pseudomonas aeruginosa, Proteus rettgeri, Serratia marcescans, Aeromonas hydrophila, Alcaligenes species, Pseudomonas cepacia and Pseudomonas putida by culturing the individual organisms onto nutrient agar and incubating for 24 hours at 30° C. Each of the individual suspensions of the test organisms were then prepared at a concentration of 10E8 cfu/ml in one quarter strength Ringer's solution by means of a Thoma counting chamber. A mixed suspension was obtained by mixing equal volumes of the individual suspensions. This procedure was repeated for each of the three challenges to which the test substrates were subjected, and the concentration of micro-organisms in each substrate after challenge was 2×10E6 cfu/ml.
(§2) Aliquots (50 parts) of a standard laboratory acrylic latex and an emulsion paint were prepared containing 0, 10, 25, 50, 100, 125, 250, 500 and 750 ppm of the 1:2 zinc complex of 3-hydroxy-4-methylthiazol-2(3H)thione which was prepared as a 1% dispersion in an aqueous solution of 0.1M tetrasodium pyrophosphate. A 1% dispersion of the 1:2 zinc complex of 1-hydroxy-2-pyridinethiol in an aqueous solution of 0.1M tetrasodiumpyrophosphate was evaluated in the same manner.
(§3) The test substrates were then stored at 40° C. for seven days and were then challenged on three separate occasions with 1 part by volume of the mixed suspension of micro-organisms. All the substrates were then incubated at 30° C. and examined for the presence of viable bacteria after 1, 3 and 7 days after each challenge (Phase 1).
(§4) Those samples which had achieved sterility were then stored for a further 8 weeks at 30° C., and were then rechallenged and the number of viable organisms again determined (Phase 2).
(§5) Viable bacteria were detected by streaking small aliquots onto nutrient agar followed by incubation at 30° C. for 2 days. The presence or absence of colonies was determined visually. […]

[2] = aqueous solubility of zinc complex after milling in pyrophosphate solution and dilution with distilled water until clear; format: physicochemical
Procedure: The concentration of the 2:1 zinc complex was then determined.
The zinc complex was milled in a 0.1 molar solution of tetrasodium pyrophosphate as described in Example 1. This was then diluted with distilled water until a clear solution was obtained.
These solutions were prepared by the method described in Example 1.

[3] = system: mixed suspension of Pseudomonas aeruginosa, Proteus rettgeri, Serratia marcescans, Aeromonas hydrophila, Alcaligenes species, Pseudomonas cepacia and …; format: cell-based, mixed bacteria; parameters: key: 5: Confluent growth; 4: Heavy growth; 3: Moderate growth; 2: Slight growth; 1: Trace growth; 0: No growth
Procedure: as §1, §2, §3, §4, §5

SMILES: Cc1csc(=S)n1[O-].Cc1csc(=S)n1[O-].[Zn+2] [Compound A, 1:2 zinc complex of 3-hydroxy-4-methylthiazol-2(3H)thione]
- growth rating ([1]; paint 10 ppm, Phase 1 Chall 1, day 1): 5
- growth rating ([1]; paint 10 ppm, Phase 1 Chall 1, day 3): 5
- growth rating ([1]; paint 10 ppm, Phase 1 Chall 1, day 7): 0
- growth rating ([1]; paint 10 ppm, Phase 1 Chall 2, day 1): 5
- growth rating ([1]; paint 10 ppm, Phase 1 Chall 2, day 3): 5
- growth rating ([1]; paint 10 ppm, Phase 1 Chall 2, day 7): 5
- growth rating ([1]; paint 10 ppm, Phase 1 Chall 3, day 1): 5
- growth rating ([1]; paint 10 ppm, Phase 1 Chall 3, day 3): 5
- growth rating ([1]; paint 10 ppm, Phase 1 Chall 3, day 7): 5
- growth rating ([1]; paint 25 ppm, Phase 1 Chall 1, day 1): 5
- growth rating ([1]; paint 25 ppm, Phase 1 Chall 1, day 3): 3
- growth rating ([1]; paint 25 ppm, Phase 1 Chall 1, day 7): 0
- growth rating ([1]; paint 25 ppm, Phase 1 Chall 2, day 1): 5
- growth rating ([1]; paint 25 ppm, Phase 1 Chall 2, day 3): 4
- growth rating ([1]; paint 25 ppm, Phase 1 Chall 2, day 7): 0
- growth rating ([1]; paint 25 ppm, Phase 1 Chall 3, day 1): 5
- growth rating ([1]; paint 25 ppm, Phase 1 Chall 3, day 3): 5
- growth rating ([1]; paint 25 ppm, Phase 1 Chall 3, day 7): 4
- growth rating ([1]; paint 50 ppm, Phase 1 Chall 1, day 1): 5
- growth rating ([1]; paint 50 ppm, Phase 1 Chall 1, day 3): 3
- growth rating ([1]; paint 50 ppm, Phase 1 Chall 1, day 7): 0
- growth rating ([1]; paint 50 ppm, Phase 1 Chall 2, day 1): 5
- growth rating ([1]; paint 50 ppm, Phase 1 Chall 2, day 3): 4
- growth rating ([1]; paint 50 ppm, Phase 1 Chall 2, day 7): 0
- growth rating ([1]; paint 50 ppm, Phase 1 Chall 3, day 1): 5
- growth rating ([1]; paint 50 ppm, Phase 1 Chall 3, day 3): 4
- growth rating ([1]; paint 50 ppm, Phase 1 Chall 3, day 7): 0
- growth rating ([1]; paint 100 ppm, Phase 1 Chall 1, day 1): 5
- aqueous solubility ([2]; finely milled sample, no pyrophosphate): about 5 ppm
- solubility in the presence of the pyrophosphate anion ([2]; milled in 0.1 molar tetrasodium pyrophosphate, diluted with distilled water): about 10,000 ppm
- growth rating ([3]; latex 10 ppm, Phase 1 Chall 1, day 1): 5
- growth rating ([3]; latex 10 ppm, Phase 1 Chall 1, day 3): 5
- growth rating ([3]; latex 10 ppm, Phase 1 Chall 1, day 7): 4
- growth rating ([3]; latex 10 ppm, Phase 1 Chall 2, day 1): 5
- growth rating ([3]; latex 10 ppm, Phase 1 Chall 2, day 3): 5
- growth rating ([3]; latex 10 ppm, Phase 1 Chall 2, day 7): 5
- growth rating ([3]; latex 10 ppm, Phase 1 Chall 3, day 1): 5
- growth rating ([3]; latex 10 ppm, Phase 1 Chall 3, day 3): 5
- growth rating ([3]; latex 10 ppm, Phase 1 Chall 3, day 7): 5
- growth rating ([3]; latex 25 ppm, Phase 1 Chall 1, day 1): 5
- growth rating ([3]; latex 25 ppm, Phase 1 Chall 1, day 3): 5
- growth rating ([3]; latex 25 ppm, Phase 1 Chall 1, day 7): 4
- growth rating ([3]; latex 25 ppm, Phase 1 Chall 2, day 1): 5
- growth rating ([3]; latex 25 ppm, Phase 1 Chall 2, day 3): 5
- growth rating ([3]; latex 25 ppm, Phase 1 Chall 2, day 7): 3
- growth rating ([3]; latex 25 ppm, Phase 1 Chall 3, day 1): 5
- growth rating ([3]; latex 25 ppm, Phase 1 Chall 3, day 3): 5
- growth rating ([3]; latex 25 ppm, Phase 1 Chall 3, day 7): 5
- growth rating ([3]; latex 50 ppm, Phase 1 Chall 1, day 1): 5
- growth rating ([3]; latex 50 ppm, Phase 1 Chall 1, day 3): 2
- growth rating ([3]; latex 50 ppm, Phase 1 Chall 1, day 7): 2
- growth rating ([3]; latex 50 ppm, Phase 1 Chall 2, day 1): 5
- growth rating ([3]; latex 50 ppm, Phase 1 Chall 2, day 3): 4
- growth rating ([3]; latex 50 ppm, Phase 1 Chall 2, day 7): 0
- growth rating ([3]; latex 50 ppm, Phase 1 Chall 3, day 1): 5
- growth rating ([3]; latex 50 ppm, Phase 1 Chall 3, day 3): 4
- growth rating ([3]; latex 50 ppm, Phase 1 Chall 3, day 7): 0
- growth rating ([3]; latex 100 ppm, Phase 1 Chall 1, day 1): 5
- growth rating ([3]; latex 100 ppm, Phase 1 Chall 1, day 3): 3
- growth rating ([3]; latex 100 ppm, Phase 1 Chall 1, day 7): 0
- growth rating ([3]; latex 100 ppm, Phase 1 Chall 2, day 1): 4
- growth rating ([3]; latex 100 ppm, Phase 1 Chall 2, day 3): 4
- growth rating ([3]; latex 100 ppm, Phase 1 Chall 2, day 7): 0
- growth rating ([3]; latex 100 ppm, Phase 1 Chall 3, day 1): 4
- growth rating ([3]; latex 100 ppm, Phase 1 Chall 3, day 3): 4
- growth rating ([3]; latex 100 ppm, Phase 1 Chall 3, day 7): 0
- growth rating ([3]; latex 125 ppm, Phase 1 Chall 1, day 1): 5
- growth rating ([3]; latex 125 ppm, Phase 1 Chall 1, day 3): 3
- growth rating ([3]; latex 125 ppm, Phase 1 Chall 1, day 7): 0
- growth rating ([3]; latex 125 ppm, Phase 1 Chall 2, day 1): 4
- growth rating ([3]; latex 125 ppm, Phase 1 Chall 2, day 3): 4
- growth rating ([3]; latex 125 ppm, Phase 1 Chall 2, day 7): 0
- growth rating ([3]; latex 125 ppm, Phase 1 Chall 3, day 1): 4
- growth rating ([3]; latex 125 ppm, Phase 1 Chall 3, day 3): 4
- growth rating ([3]; latex 125 ppm, Phase 1 Chall 3, day 7): 0
- growth rating ([3]; latex 250 ppm, Phase 1 Chall 1, day 1): 5
- growth rating ([3]; latex 250 ppm, Phase 1 Chall 1, day 3): 3
- growth rating ([3]; latex 250 ppm, Phase 1 Chall 1, day 7): 0
- growth rating ([3]; latex 250 ppm, Phase 1 Chall 2, day 1): 4
- growth rating ([3]; latex 250 ppm, Phase 1 Chall 2, day 3): 4
- growth rating ([3]; latex 250 ppm, Phase 1 Chall 2, day 7): 0
- growth rating ([3]; latex 250 ppm, Phase 1 Chall 3, day 1): 4
- growth rating ([3]; latex 250 ppm, Phase 1 Chall 3, day 3): 4
- growth rating ([3]; latex 250 ppm, Phase 1 Chall 3, day 7): 0
- growth rating ([3]; latex 500 ppm, Phase 1 Chall 1, day 1): 5
- growth rating ([3]; latex 500 ppm, Phase 1 Chall 1, day 3): 3
- growth rating ([3]; latex 500 ppm, Phase 1 Chall 1, day 7): 0
- growth rating ([3]; latex 500 ppm, Phase 1 Chall 2, day 1): 4
- growth rating ([3]; latex 500 ppm, Phase 1 Chall 2, day 3): 4
- growth rating ([3]; latex 500 ppm, Phase 1 Chall 2, day 7): 0
- growth rating ([3]; latex 500 ppm, Phase 1 Chall 3, day 1): 3
- growth rating ([3]; latex 500 ppm, Phase 1 Chall 3, day 3): 2
- growth rating ([3]; latex 500 ppm, Phase 1 Chall 3, day 7): 0
- growth rating ([3]; latex 750 ppm, Phase 1 Chall 1, day 1): 4
- growth rating ([3]; latex 750 ppm, Phase 1 Chall 1, day 3): 2
- growth rating ([3]; latex 750 ppm, Phase 1 Chall 1, day 7): 0
- growth rating ([3]; latex 750 ppm, Phase 1 Chall 2, day 1): 3
- growth rating ([3]; latex 750 ppm, Phase 1 Chall 2, day 3): 3
- growth rating ([3]; latex 750 ppm, Phase 1 Chall 2, day 7): 0
- growth rating ([3]; latex 750 ppm, Phase 1 Chall 3, day 1): 2
- growth rating ([3]; latex 750 ppm, Phase 1 Chall 3, day 3): 0
- growth rating ([3]; latex 750 ppm, Phase 1 Chall 3, day 7): 0
